Source: patent US9220703B2, “Composition and method for the protection of articular cartilage” (priority 2014, dated 2015)

Tested on: Mycobacterium tuberculosis (adjuvant) induced arthritis
Experiment: Adjuvant induced arthritis in rats, histopathology of paw/ankle joint tissue
Format: in vivo, Albino Wistar rats
Conditions: for Histopathology of rat paw tissue: articular cartilage / Histopathology of rat paw tissue: granulomas / Histopathology of rat paw tissue: synovial tissue: adjuvant arthritic rats, H&E stain
Experimental: Pathological damage: Adjuvant induced arthritis in animal models
Animals used: Albino Wistar rats of either sex
Weight of the animals: 140-180 grams
Number of animals/group: 5
Methodology: Chronic arthritis was induced in rats by the injection of 0.05 mL of (0.5% w/v) suspension of killed Mycobacterium tuberculosis, homogenized in liquid paraffin in the left hind foot.
Right ankle joints of the animals in the control and treated groups were separated from the hind paw, weighed and immersed in 10% buffered formalin for 24 hours, followed by decalcification in 10% EDTA. The joints were then dehydrated, processed and paraffin (56 C-58 C) blocks were prepared, stained (hematoxylin and eosin) and examined under the compound microscope (Patel P, Patel D, Patel N. Experimental investigation of anti-rheumatoid activity of Pleurotus sajorcaju in adjuvant-induced arthritic rats. Chinese Journal of Natural Medicines, 2012; 10 (4): 0269-0274.

In the case of `COc1cc(/C=C/C(=O)COC(=O)/C=C/c2ccc(O)c(OC)c2)ccc1O` [Calebin A], the “Histopathology of rat paw tissue: articular cartilage” value (Calebin A 10 mg/kg per oral) is reported as “intact articular cartilage with synovial tissue in the joint”, the “Histopathology of rat paw tissue: granulomas” value (Calebin A 10 mg/kg per oral) is reported as “No granulomas were seen” and the “Histopathology of rat paw tissue: synovial tissue” value (Calebin A 10 mg/kg per oral) is reported as “congested vascular spaces (Long-Arrows), scattered lymphocytes (Short-Arrow) and intact synovial lining”. The “Histopathology of rat paw tissue: articular cartilage” value (Calebin A 20 mg/kg per oral) was “intact articular cartilage with synovial tissue in the joint”, the “Histopathology of rat paw tissue: granulomas” value (Calebin A 20 mg/kg per oral) was “No granulomas were seen” and the “Histopathology of rat paw tissue: synovial tissue” value (Calebin A 20 mg/kg per oral) was “mild synovial epithelial hyperplasia (Short-Arrow), scattered lymphocytes (Long-Arrow) and intact vascular spaces”. For the same compound, the “Protection of articular cartilage (histopathological studies, overall)” value (arthritic rats, across doses) was “dose dependant protection of articular cartilage”.
